These results are taken from patent US11613556B2, “Oxysterols and methods of use thereof” (Sage Therapeutics, Inc., priority 2016, dated 2023).

Structures are written as SMILES. Read-outs that look alike come from different tables or passages of the source.

For experiment [1], the target named is GluN2B glutamate receptors expressed in mammalian cells (Homo sapiens (Human), UniProt Q05586+Q13224). The experiment in a line: Whole-cell patch clamp of mammalian cells (Ionworks Barracuda), positive allosteric modulation, GluN2B. The class given is cell-based. The following applies: for Emax: read-out: GluN2B PCA EMax (%). On the procedure:
(§1) NMDA potentiation in mammalian cells which expressed NMDA receptors was assessed using the automatic patch-clamp system can be used determine the NAM activity of compounds as described below. An whole cell patch-clamp system can be used determine the PAM activity of compounds as described below.
(§2) The measurements were performed using Ion Works Barracuda platform following this procedure:
(§3) Electrophysiological Procedures: • a) Intracellular solution (mM): 50 mM CsCl, 90 mM CsF, 2 mM MgCl2, 5 mM EGTA, 10 mM HEPES. Adjust to pH 7.2 with CsOH. • b) Extracellular solution, HB-PS (composition in mM): NaCl, 137; KCl, 1.0; CaCl2, 5; HEPES, 10; Glucose, 10; pH adjusted to 7.4 with NaOH (refrigerated until use). • c) Holding potential: −70 mV, potential during agonist/PAM application: −40 mV.
(§4) Recording Procedure: • a) Extracellular buffer will be loaded into the PPC plate wells (11 μL per well). Cell suspension will be pipetted into the wells (9 μL per well) of the PPC planar electrode. • b) Whole-cell recording configuration will be established via patch perforation with membrane currents recorded by on-board patch clamp amplifiers. • c) Two recordings (scans) will be performed. First, during pre-application of test article alone (duration of pre-application—5 min) and second, during test articles and agonist (EC20 L-glutamate and 30 μM glycine) co-application to detect positive modulatory effects of the test article.
(§5) Test Article Administration: The first pre-application will consist of the addition of 20 μL of 2× concentrated test article solution and, second, of 20 μL of 1× concentrated test article and agonist at 10 μL/s (2 second total application time).
(§6) Potentiating Effect of Positive Allosteric Modulators (PAM) on the Channel
(§7) The maximal amplitude of the evoked currents are measured and defined as Peak Current Amplitude (PCA).

In experiment [2] the target is GluN1/GluN2A glutamate receptors (human GRIN1/GRIN2A) expressed in HEK293 cells (Homo sapiens (Human), UniProt Q05586+Q12879). Put plainly: Whole-cell patch clamp of mammalian cells (Ionworks Barracuda), positive allosteric modulation, GluN1/GluN2A. The class given is cell-based. The conditions noted are these: for Emax: read-out: GluN2A PCA EMax (%). As for the experimental part:
as §1, §2, §3, §4, §5, §6, §7
(In general: In patch-clamp work, channel activity is measured electrically.)

Setting [3] is: peak current amplitude, co-application with EC20 L-glutamate and 30 μM glycine, read-out: GluN2B PCA EC50.
The mark [4] stands for this setting: peak current amplitude, co-application with EC20 L-glutamate and 30 μM glycine.
[5] abbreviates: peak current amplitude, co-application with EC20 L-glutamate and 30 μM glycine, HEK293.
[6] abbreviates: peak current amplitude, co-application with EC20 L-glutamate and 30 μM glycine, HEK293, read-out: GluN2A PCA EC50.

Sequence of GluN2B glutamate receptors expressed in mammalian cells (Q13224 27-1484, other chains not shown): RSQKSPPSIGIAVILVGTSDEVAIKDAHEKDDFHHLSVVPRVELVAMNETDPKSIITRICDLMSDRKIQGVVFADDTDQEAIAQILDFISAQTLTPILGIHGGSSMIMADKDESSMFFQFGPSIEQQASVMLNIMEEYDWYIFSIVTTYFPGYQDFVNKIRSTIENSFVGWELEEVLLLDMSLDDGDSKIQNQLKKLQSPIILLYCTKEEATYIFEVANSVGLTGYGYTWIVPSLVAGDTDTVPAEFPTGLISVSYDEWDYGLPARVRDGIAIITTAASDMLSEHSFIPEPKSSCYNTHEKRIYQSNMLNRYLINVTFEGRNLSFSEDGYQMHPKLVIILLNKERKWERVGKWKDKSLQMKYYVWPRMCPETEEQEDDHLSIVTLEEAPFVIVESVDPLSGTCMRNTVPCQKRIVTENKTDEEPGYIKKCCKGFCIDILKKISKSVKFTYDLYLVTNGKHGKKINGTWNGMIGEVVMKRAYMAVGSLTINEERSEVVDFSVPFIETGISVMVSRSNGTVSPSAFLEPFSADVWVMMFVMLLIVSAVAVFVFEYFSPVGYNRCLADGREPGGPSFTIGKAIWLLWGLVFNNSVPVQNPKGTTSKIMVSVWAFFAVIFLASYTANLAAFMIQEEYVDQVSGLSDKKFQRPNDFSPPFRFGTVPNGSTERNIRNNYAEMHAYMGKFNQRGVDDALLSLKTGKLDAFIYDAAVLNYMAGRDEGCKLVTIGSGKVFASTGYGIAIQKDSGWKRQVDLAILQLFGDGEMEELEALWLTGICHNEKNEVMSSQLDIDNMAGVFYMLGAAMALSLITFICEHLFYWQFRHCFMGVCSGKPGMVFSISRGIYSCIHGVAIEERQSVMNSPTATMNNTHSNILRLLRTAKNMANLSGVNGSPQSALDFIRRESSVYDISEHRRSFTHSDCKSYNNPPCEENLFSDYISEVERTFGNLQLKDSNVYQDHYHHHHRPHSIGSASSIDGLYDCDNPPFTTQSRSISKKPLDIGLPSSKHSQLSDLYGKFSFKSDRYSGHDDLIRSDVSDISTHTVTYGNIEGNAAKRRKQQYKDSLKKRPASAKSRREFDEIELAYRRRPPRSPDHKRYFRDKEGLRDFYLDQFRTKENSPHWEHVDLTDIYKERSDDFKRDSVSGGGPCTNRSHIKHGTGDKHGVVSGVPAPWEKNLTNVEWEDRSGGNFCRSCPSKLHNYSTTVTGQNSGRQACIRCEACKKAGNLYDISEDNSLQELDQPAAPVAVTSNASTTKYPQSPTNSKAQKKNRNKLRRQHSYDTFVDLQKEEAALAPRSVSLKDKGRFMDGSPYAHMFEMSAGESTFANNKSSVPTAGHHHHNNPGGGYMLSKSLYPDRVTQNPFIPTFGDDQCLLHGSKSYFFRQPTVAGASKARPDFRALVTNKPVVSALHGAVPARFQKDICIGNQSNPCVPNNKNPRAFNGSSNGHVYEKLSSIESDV
Sequence of GluN1/GluN2A glutamate receptors (human GRIN1/GRIN2A) expressed in HEK293 cells (Q12879 whole entry, looked up, other chains not shown): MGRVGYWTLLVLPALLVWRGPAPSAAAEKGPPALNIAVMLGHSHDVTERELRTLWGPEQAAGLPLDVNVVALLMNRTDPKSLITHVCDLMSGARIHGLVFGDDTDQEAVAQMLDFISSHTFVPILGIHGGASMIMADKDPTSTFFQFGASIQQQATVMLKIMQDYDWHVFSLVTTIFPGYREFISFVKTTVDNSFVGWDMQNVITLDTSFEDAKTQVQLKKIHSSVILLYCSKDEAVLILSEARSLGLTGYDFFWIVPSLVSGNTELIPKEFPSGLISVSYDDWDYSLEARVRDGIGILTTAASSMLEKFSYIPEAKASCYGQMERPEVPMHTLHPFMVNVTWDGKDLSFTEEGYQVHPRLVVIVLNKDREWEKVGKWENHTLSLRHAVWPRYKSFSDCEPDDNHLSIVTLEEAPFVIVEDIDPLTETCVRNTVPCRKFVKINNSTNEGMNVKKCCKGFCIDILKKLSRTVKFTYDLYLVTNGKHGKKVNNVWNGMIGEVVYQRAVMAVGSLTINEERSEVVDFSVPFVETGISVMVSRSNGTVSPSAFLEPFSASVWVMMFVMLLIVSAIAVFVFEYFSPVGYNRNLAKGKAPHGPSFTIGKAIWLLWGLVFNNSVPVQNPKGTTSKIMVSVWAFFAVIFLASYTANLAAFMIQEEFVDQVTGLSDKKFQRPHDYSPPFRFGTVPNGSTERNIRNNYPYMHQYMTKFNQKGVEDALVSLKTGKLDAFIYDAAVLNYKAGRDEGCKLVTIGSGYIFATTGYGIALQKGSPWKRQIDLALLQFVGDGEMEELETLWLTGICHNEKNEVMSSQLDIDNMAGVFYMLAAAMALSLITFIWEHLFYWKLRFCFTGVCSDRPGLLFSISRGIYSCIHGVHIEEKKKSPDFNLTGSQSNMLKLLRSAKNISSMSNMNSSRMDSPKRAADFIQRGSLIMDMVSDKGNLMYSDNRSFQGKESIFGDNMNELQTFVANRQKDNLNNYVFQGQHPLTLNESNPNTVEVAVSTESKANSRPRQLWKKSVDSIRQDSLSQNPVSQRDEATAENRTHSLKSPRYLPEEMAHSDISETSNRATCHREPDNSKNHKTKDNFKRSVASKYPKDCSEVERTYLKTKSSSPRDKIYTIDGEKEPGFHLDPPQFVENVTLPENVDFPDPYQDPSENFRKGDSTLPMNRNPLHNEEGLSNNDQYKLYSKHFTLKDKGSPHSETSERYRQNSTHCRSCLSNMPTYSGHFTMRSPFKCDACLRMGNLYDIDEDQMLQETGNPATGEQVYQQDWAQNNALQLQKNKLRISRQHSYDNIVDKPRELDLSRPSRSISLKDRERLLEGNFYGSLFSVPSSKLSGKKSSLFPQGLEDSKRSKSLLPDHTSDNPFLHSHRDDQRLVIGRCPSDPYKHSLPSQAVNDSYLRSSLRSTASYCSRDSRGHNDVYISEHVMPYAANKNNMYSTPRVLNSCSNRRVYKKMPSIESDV

A word on the EC50: it is the concentration giving half of the maximal effect. As usually defined, the Emax is the greatest response seen or fitted, relative to the assay's reference. On to `CC[C@]1(O)CC[C@H]2C(=CC[C@@H]3[C@@H]2CC[C@]2(C)[C@@H]([C@H](C)[C@@H](O)CCC(C)C)CC[C@@H]32)C1` [Compound 44, (3S,8R,9S,10R,13S,14S,17R)-3-ethyl-17-((2S,3S)-3-hydroxy-6-methylheptan-2-yl)-13-methyl-2,3,4,7,8,9,10,11,12,13,14,15,16,17-tetradecahydro-1H-cyclopenta[a]phenanthren-3-ol], for which the EC50 in experiment [1] (setting [3]) and in experiment [2] was greater than 1000 nM in each case. For the same compound, the Emax in experiment [1] (setting [4]) and in experiment [2] (setting [5]) was less than 100% in each case.

With `CC[C@]1(O)CC[C@H]2[C@@H](CC[C@@H]3[C@@H]2CC[C@]2(C)[C@@H]([C@H](C)[C@@H](O)CCC(C)C)CC[C@@H]32)C1` [Compound 28, (3S,5S,8R,9R,10S,13S,14S,17R)-3-ethyl-17-((2S,3S)-3-hydroxy-6-methylheptan-2-yl)-13-methylhexadecahydro-1H-cyclopenta[a]phenanthren-3-ol], the EC50 in experiment [1] (setting [3]) and in experiment [2] was greater than 1000 nM in each case. The Emax in experiment [1] (setting [4]) was 100 to 500%; in experiment [2] (setting [5]), less than 100%.

For the compound `C[C@@H]([C@H]1CC[C@H]2[C@@H]3CC[C@H]4C[C@](O)(C(F)(F)F)CC[C@]4(C)[C@H]3CC[C@]12C)[C@@H](O)C[C@H](O)c1ccccc1` [Compound 25, (1S,3S,4S)-4-((3S,5S,8R,9S,10S,13S,14S,17R)-3-hydroxy-10,13-dimethyl-3-(trifluoromethyl)hexadecahydro-1H-cyclopenta[a]phenanthren-17-yl)-1-phenylpentane-1,3-diol], the EC50 in experiment [1] and in experiment [2] (setting [6]) was greater than 1000 nM throughout. Besides, the maximal response (Emax) in experiment [1] and in experiment [2] (setting [5]) was less than 100% each time.

`CC(C)CC[C@@H](O)[C@@H](C)[C@H]1CC[C@H]2[C@@H]3CC[C@@H]4C[C@@](C)(O)CC[C@]4(C)[C@H]3CC[C@]12C` [Compound 36, (3S,5R,8R,9S,10S,13S,14S,17R)-17-((2S,3R)-3-hydroxy-6-methylheptan-2-yl)-3,10,13-trimethylhexadecahydro-1H-cyclopenta[a]phenanthren-3-ol]: the concentration giving a half-maximal response (EC50) in experiment [1] (setting [3]) and in experiment [2] was greater than 1000 nM in each case. In addition, the Emax in experiment [1] (setting [4]) and in experiment [2] (setting [5]) was less than 100% each time.

With `CC[C@]1(O)CC[C@@]2(C)[C@@H](CC[C@@H]3[C@@H]2CC[C@]2(C)[C@@H]([C@H](C)[C@@H](O)CCC(C)C)CC[C@@H]32)C1` [Compound 29, (3S,5S,8R,9S,10S,13S,14S,17R)-3-ethyl-17-((2S,3S)-3-hydroxy-6-methylheptan-2-yl)-10,13-dimethylhexadecahydro-1H-cyclopenta[a]phenanthren-3-ol], the EC50 in experiment [1] and in experiment [2] (setting [6]) was greater than 1000 nM each time. Moreover, the Emax in experiment [1] and in experiment [2] (setting [5]) was less than 100% throughout.

With `C[C@@H]([C@H]1CC[C@H]2[C@@H]3CC[C@H]4C[C@](O)(C(F)(F)F)CC[C@]4(C)[C@H]3CC[C@]12C)[C@@H](O)C[C@@H](O)c1ccccc1` [Compound 79, (1R,3S,4S)-4-((3S,5S,8R,9S,10S,13S,14S,17R)-3-hydroxy-10,13-dimethyl-3-(trifluoromethyl)hexadecahydro-1H-cyclopenta[a]phenanthren-17-yl)-1-phenylpentane-1,3-diol], the EC50 in experiment [1] and in experiment [2] (setting [6]) was greater than 1000 nM each time. Moreover, the Emax in experiment [1] and in experiment [2] (setting [5]) was less than 100% each time.

In the case of `CC(C)CC[C@@H](O)[C@@H](C)[C@H]1CC[C@H]2[C@@H]3CC=C4C[C@@](C)(O)CC[C@]4(C)[C@H]3CC[C@]12C` [Compound 30, (3S,8S,9S,10R,13S,14S,17R)-17-((2S,3R)-3-hydroxy-6-methylheptan-2-yl)-3,10,13-trimethyl-2,3,4,7,8,9,10,11,12,13,14,15,16,17-tetradecahydro-1H-cyclopenta[a]phenanthren-3-ol], the EC50 in experiment [1] (setting [3]) and in experiment [2] was greater than 1000 nM each time. Also, the Emax in experiment [1] (setting [4]) and in experiment [2] (setting [5]) was 100 to 500% each time.

Take `C[C@H]([C@H](O)C[C@@H](O)c1ccccc1)[C@H]1CC[C@H]2[C@@H]3CC[C@H]4C[C@](O)(C(F)(F)F)CC[C@]4(C)[C@H]3CC[C@]12C` [Compound 31, (1R,3R,4S)-4-((3S,5S,8R,9S,10S,13S,14S,17R)-3-hydroxy-10,13-dimethyl-3-(trifluoromethyl)hexadecahydro-1H-cyclopenta[a]phenanthren-17-yl)-1-phenylpentane-1,3-diol]: the EC50 in experiment [1] was in the range of 100 to 1000 nM; in experiment [2] (setting [6]), 1 to 100 nM. The Emax in experiment [1] and in experiment [2] (setting [5]) was 100 to 500% throughout.

With `CC[C@]1(O)CC[C@@]2(C)C(=CC[C@H]3[C@@H]4CC[C@H]([C@H](C)[C@H](O)CCC(C)C)[C@@]4(C)CC[C@@H]32)C1` [Compound 52, (3S,8S,9S,10R,13S,14S,17R)-3-ethyl-17-((2S,3R)-3-hydroxy-6-methylheptan-2-yl)-10,13-dimethyl-2,3,4,7,8,9,10,11,12,13,14,15,16,17-tetradecahydro-1H-cyclopenta[a]phenanthren-3-ol], the EC50 in experiment [1] (setting [3]) and in experiment [2] was greater than 1000 nM in each case. Also, the Emax in experiment [1] (setting [4]) and in experiment [2] (setting [5]) was less than 100% throughout.

On to `CC[C@]1(O)CC[C@@]2(C)[C@@H](CC[C@@H]3[C@@H]2CC[C@]2(C)[C@@H]([C@H](C)[C@H](O)CCC(C)C)CC[C@@H]32)C1` [Compound 24, (3S,5S,8R,9S,10S,13S,14S,17R)-3-ethyl-17-((2S,3R)-3-hydroxy-6-methylheptan-2-yl)-10,13-dimethylhexadecahydro-1H-cyclopenta[a]phenanthren-3-ol], for which the EC50 in experiment [1] and in experiment [2] (setting [6]) was greater than 1000 nM each time. Also, the Emax in experiment [1] and in experiment [2] (setting [5]) was less than 100% in each case.

For the compound `CC(C)CC[C@@H](O)[C@@H](C)[C@H]1CC[C@H]2[C@@H]3CC[C@H]4C[C@@](C)(O)CC[C@]4(C)[C@H]3CC[C@]12C` [Compound 47, (3S,5S,8R,9S,10S,13S,14S,17R)-17-((2S,3R)-3-hydroxy-6-methylheptan-2-yl)-3,10,13-trimethylhexadecahydro-1H-cyclopenta[a]phenanthren-3-ol], the EC50 in experiment [1] (setting [3]) and in experiment [2] was greater than 1000 nM in each case. Also, the maximal response (Emax) in experiment [1] (setting [4]) and in experiment [2] (setting [5]) was less than 100% in each case.

As for `CC[C@]1(O)CC[C@H]2[C@H](CC[C@@H]3[C@@H]2CC[C@]2(C)[C@@H]([C@H](C)[C@@H](O)CCC(C)C)CC[C@@H]32)C1` [Compound 82, (3S,5R,8R,9R,10S,13S,14S,17R)-3-ethyl-17-((2S,3S)-3-hydroxy-6-methylheptan-2-yl)-13-methylhexadecahydro-1H-cyclopenta[a]phenanthren-3-ol], the EC50 in experiment [1] (setting [3]) and in experiment [2] was greater than 1000 nM in each case. For the same compound, the maximal response (Emax) in experiment [1] (setting [4]) and in experiment [2] (setting [5]) was less than 100% each time.
